Results taken from patent publication US11767316B2, “Non-fused thiophene derivatives and their uses” (ENYO PHARMA, priority 2018, dated 2023).
pEC50, pIC50: −log10 of the molar value.

What was measured:
NFκB = NFκB reporter assay (NanoLuciferase) in A549 cells, TNFα stimulation; type: cell-based; conditions: Homo sapiens, 4 ng/ml TNFα, 6 hours
Text: Compounds of the present invention have been tested for their capacity to inhibit NFκB.
The NFκB reporter construct was made by cloning 5 NFκB responsive elements upstream of a NanoLuciferase reporter gene flanked by AAVS1 genomic sequences.
NFκB Responsive element fused with NanoLuciferase and SV40 late Poly(A) signal was amplified from pNL3.2-NFκB-Nluc (Promega) using NFKB-NLUC-F and NFKB-NLUC-R primers and inserted by Infusion (TaKaRa) in AAVS1 SA-2A-puro-pA donor plasmid (Hockemeyer et al, Nat Biotechnol. 2009, 27, 851-7) digested by Sal1. pCRISPR AAVS1-T2 expressing a guide RNA (gRNA) to target human AAVS1 (T2 target sequence) was constructed by inserting AAVS1-T2A hybridized primers in pLentiCRISPR v2-blast (Sanjana et al, Nat Methods. 2014, 11, 783-4) digested by Bsmb1.
A549 cells were transfected by the plasmids and puromycine selected for 5 days (1 μg mL-1). Then clones were obtained by limiting dilution and selected to maximize TNFα dependent NFkB-NanoLuciferase induction.
The reporter cells were seeded on a 96-well plate for overnight with DMEM including 10% FBS. Test compounds were added at varying concentrations. The cells then were treated with 4 ng/ml TNFα (Peprotech, ref E251) in DMEM+10% FBS. NanoGlo luciferase assay (Promega) was carried out 6 hours later. Luminescence was measured using a Spark 20M spectrofluorimeter (Tecan). Values were normalized to the luminescence measured in untreated cells.

LXFL 1121 = assay: Cytotoxicity, propidium iodide based monolayer assay, LXFL 1121; conditions: 96 h; LXFL 1121 (lung large cell carcinoma), four days of treatment, T/C=50%; read-out: Absolute IC50
Method: (§1) The cytotoxicity was tested for compounds of the invention on five different cell-lines, namely LXFL 1121, MAXF 401, MMXF L-636, PRXF PC-3M and UXF 1138 which are respectively lung large cell carcinoma, breast adeno carcinoma, multiple myeloma, prostate adeno carcinoma and uterine sarcoma.
(§2) A working stock solution of the test compounds was prepared in DMSO at a concentration of 33 mM or 8.25 mM, and small aliquots were stored at −20° C. On each day of an experiment, a frozen aliquot of the working stock solution was thawed and stored at room temperature prior to and during treatment.
(§3) All liquid handling steps were performed using the Tecan Freedom EVO 200 platform. First, serial 2-fold dilutions of the 33 mM DMSO working stock solution were done in DMSO. […]
(§4) A modified propidium iodide (PI) based monolayer assay was used to assess the anti-cancer activity of the compounds. Briefly, cells were harvested from exponential phase cultures, counted and plated in 96 well flat-bottom microtiter plates at a cell density of 4,000 to 40,000 cells/well dependent on the cell line's growth rate. […] After an incubation period of 1-2 hours at room temperature, fluorescence (FU) was measured using the Enspire Multimode Plate Reader (excitation λ=530 nm, emission λ=620 nm) to quantify the amount of attached viable cells. […]

MAXF 401 = assay: Cytotoxicity, propidium iodide based monolayer assay, MAXF 401; type: cell-based; conditions: Homo sapiens, MAXF401, 96 h; MAXF 401 (breast adeno carcinoma), four days of treatment, T/C=50%; read-out: Absolute IC50
Method: as §1, §2, §3, §4

**Q.** How did the pEC50 (NFκB) turn out when O=C(Nc1scc(C2CCc3ccccc3C2)c1C(=O)O)c1ccccc1 (stereo not drawn) [#16] was run?
**A.** 7.10

**Q.** And the pIC50 (LXFL 1121)?
**A.** 6.06

**Q.** What about the pIC50 (MAXF 401) of the same compound?
**A.** 6.29
